Test results from US20220304943A1, “FLOWABLE CANNABINOID COMPOSITIONS HAVING HIGH EFFECTIVE CONCENTRATIONS” (Canopy Growth Corporation, priority 2019, published 2022).

Assay: Saturation concentration of CBDA and CBD
Assay type: physicochemical
Description: A cannabinoid composition comprising a 2:1 mixture of cannabidiolic acid (CBDA) and cannabidiol (CBD) and only minor amounts of other products provides a non-limiting illustration of how a cannabinoid incipient can be utilized to increase the in actio concentration of a target cannabinoid without increasing the in situ concentration of the target cannabinoid above its saturation concentration. […] In other words, under at least some vape-device related conditions, CBD solutions comprising greater than about 50 wt. % CBD may suffer from reduced flowability within a vape device. As such, high effective CBD concentrations appear untenable based on conventional strategies. However, the experimental results set out herein also indicate that: (i) the saturation concentration of CBDA under similar circumstances is considerably higher than that of CBD; (ii) CBDA can be converted to CBD under the conditions associated with cannabinoid vapourization (e.g. the formation of a cannabinoid-based vapour or aerosol); and (iii) including CBDA in an in situ composition can increase the saturation concentration of CBD. Accordingly, as evidenced by the results set out in the present disclosure, CBDA can be utilized as an incipient—it can increase the in actio concentration of CBD without increasing the in situ concentration of CBD above its saturation concentration. […] In this respect, the present disclosure provides access to flowable cannabinoid compositions having high effective concentrations.
FIG. 1 illustrates this with a schematic phase diagram 100 for a cannabinoid composition in accordance with the present disclosure that comprises CBDA and CBD. […] In FIG. 1, the saturation concentration of CBDA and CBD are identified with reference numbers 102 and 104, respectively, and they delineate a “potentially flowable zone” 106 from a “non-flowable zone” 108. […] This is indicated schematically in FIG. 1 with arrow 110. […]

[1] = ethanol solutions under standard temperature and pressure conditions, CBD derived from an isolate

Structure (SMILES) | saturation concentration [1] | saturation concentration (under at least some vape-device related conditions)
C=C(C)[C@@H]1CCC(C)=C[C@H]1c1c(O)cc(CCCCC)cc1O [CBD, cannabidiol] | about 50 wt. % | about 50 wt. %
C=C(C)[C@@H]1CCC(C)=C[C@H]1c1c(O)cc(CCCCC)c(C(=O)O)c1O [CBDA, cannabidiolic acid] | about 70 wt. % | –
